# Measurements published in patent EP1067137B1, “Granules of alpha-L-aspartyl-L-phenylalnine methyl ester” (Ajinomoto Co., Inc., priority 1991, dated 1992).
# Peptide text beside a SMILES is read from it.
# Tests used:
# [1] = Dissolution time of α-APM granules in water; type: physicochemical; details: 8 g of sample in 2 liters of water, 20 °C, 350 rpm
# Procedure: The dissolution time of the α-APM granules thus obtained was measured by the method mentioned below, and the results obtained are shown in Table 1.
# First, 2 liters of water were previously put in a 3-liter beaker and stirred with a magnetic stirrer.
# The size of the stirrer to be used for the stirring was 70 mm x 15 mm φ and the rotation number was set to be 350 rpm with Whatman Dataplate 440. The temperature of the water was kept to be 20 ° C by the use of a hot plate. 8 g of a sample was put into the water under the determined condition, whereupon the time needed for completely dissolving it in the water was measured to be the dissolution time of the sample.
# [2] = relative to sucrose (cane sugar); cited from earlier work
# [3] = Original Powder before Granulation
# [4] = granules, Grain Size 100 to 150 µm
# [5] = granules, Grain Size 150 to 180 µm
# [6] = granules, Grain Size 180 to 300 µm
# [7] = granules, Grain Size 300 to 500 µm
# [8] = granules, Grain Size 500 to 850 µm
# [9] = granules, Grain Size 850 to 1400 µm
SMILES,"Dissolution Time [1, 3]","Dissolution Time [1, 4]","Dissolution Time [1, 5]","Dissolution Time [1, 6]","Dissolution Time [1, 7]","Dissolution Time [1, 8]","Dissolution Time [1, 9]",sweetness [2]
"COC(=O)[C@H](Cc1ccccc1)NC(=O)[C@@H](N)CC(=O)O [sample A, α-L-aspartyl-L-phenylalanine methyl ester] (H-Asp-Phe-OMe)",30 min,15 min,8 min,11 min,18 min,25 min,38 min,–
"COC(=O)[C@H](Cc1ccccc1)NC(=O)[C@@H](N)CC(=O)O [sample B, α-L-aspartyl-L-phenylalanine methyl ester] (H-Asp-Phe-OMe)",15 min,10 min,7 min,9 min,17 min,24 min,35 min,–
"COC(=O)[C@H](Cc1ccccc1)NC(=O)[C@@H](N)CC(=O)O [sample C, α-L-aspartyl-L-phenylalanine methyl ester] (H-Asp-Phe-OMe)",60 min,36 min,20 min,12 min,19 min,27 min,38 min,–
"COC(=O)[C@H](Cc1ccccc1)NC(=O)[C@@H](N)CC(=O)O [α-APM, α-L-aspartyl-L-phenylalanine methyl ester] (H-Asp-Phe-OMe)",–,–,–,–,–,–,–,about 200 times that of sucrose
